Measurements taken from patent publication US12077503B2, “Substituted cyclic amides and their use as herbicides” (FMC CORPORATION, priority 2015, dated 2024).

Key:
Format in all cases: in vivo
corn (Zea mays) [1] = assay: Test G Pre-Emergence Protocol; details: Zea mays, pre-emergence, 312 h, evaluated after 13 days; for plant injury at 15.625 g/ha: 15.625 g ai/ha; for plant injury at 15.625 g/ha / plant injury at 250 g/ha: read-out: Corn damage rating (100=total damage to plant; 0=no damage to plant); for plant injury at 62.5 g/ha: 62.5 g ai/ha, 100=total damage to plant, 0=no damage to plant, read-out: plant damage rating, Corn; for plant injury at 250 g/ha: 250 g ai/ha
How it was run: (§1)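 Visual injury (0–100) at day 13 after a single pre-emergence spray. Rates: 15.625, 62.5, 250 g/ha in acetone–water 50:50 with 0.5% Tween 20. Growth conditions: 24/16° C, 14 h light, 65% humidity.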

[2] = test system: velvetleaf (Abutilon theophrasti); assay: Test G Pre-Emergence Protocol; details: Abutilon theophrasti, pre-emergence, 312 h, evaluated after 13 days; for pest or weed control at 15.625 g/ha: 15.625 g ai/ha; for pest or weed control at 15.625 g/ha / pest or weed control at 250 g/ha: read-out: Velvetleaf damage rating (100=total damage to plant; 0=no damage to plant); for pest or weed control at 62.5 g/ha: 62.5 g ai/ha, 100=total damage to plant, 0=no damage to plant, read-out: plant damage rating, Velvetleaf; for pest or weed control at 250 g/ha: 250 g ai/ha
How it was run: as §1

[3] = test system: redroot pigweed (Amaranthus retroflexus); assay: Test G Pre-Emergence Protocol; details: Amaranthus retroflexus, pre-emergence, 312 h, evaluated after 13 days; for pest or weed control at 15.625 g/ha: 15.625 g ai/ha; for pest or weed control at 15.625 g/ha / pest or weed control at 250 g/ha: read-out: Pigweed, Redroot damage rating (100=total damage to plant; 0=no damage to plant); for pest or weed control at 62.5 g/ha: 62.5 g ai/ha, 100=total damage to plant, 0=no damage to plant, read-out: plant damage rating, Pigweed, Redroot; for pest or weed control at 250 g/ha: 250 g ai/ha
How it was run: as §1

[4] = test system: ivy-leaved morning glory (Ipomoea hederacea); assay: Test G Pre-Emergence Protocol; details: Ipomoea, pre-emergence, 312 h, evaluated after 13 days; for pest or weed control at 15.625 g/ha: 15.625 g ai/ha, read-out: Morning-glory, Ivy-leaved damage rating (100=total damage to plant; 0=no damage to plant); for pest or weed control at 62.5 g/ha: 62.5 g ai/ha, 100=total damage to plant, 0=no damage to plant, read-out: plant damage rating, Morningglory, Ivy-leaved; for pest or weed control at 250 g/ha: 250 g ai/ha, read-out: Morningglory, Ivy-leaved damage rating (100=total damage to plant; 0=no damage to plant)
How it was run: as §1

[5] = test system: giant foxtail (Setaria faberi); assay: Test G Pre-Emergence Protocol; details: Setaria faberi, pre-emergence, 312 h, evaluated after 13 days; for pest or weed control at 15.625 g/ha: 15.625 g ai/ha; for pest or weed control at 15.625 g/ha / pest or weed control at 250 g/ha: read-out: Foxtail, Giant damage rating (100=total damage to plant; 0=no damage to plant); for pest or weed control at 62.5 g/ha: 62.5 g ai/ha, 100=total damage to plant, 0=no damage to plant, read-out: plant damage rating, Foxtail, Giant; for pest or weed control at 250 g/ha: 250 g ai/ha
How it was run: as §1

[6] = test system: barnyardgrass (Echinochloa crus-galli); assay: Test G Pre-Emergence Protocol; details: Echinochloa crus-galli, pre-emergence, 312 h, evaluated after 13 days; for pest or weed control at 15.625 g/ha: 15.625 g ai/ha, read-out: Barnyard grass damage rating (100=total damage to plant; 0=no damage to plant); for pest or weed control at 62.5 g/ha: 62.5 g ai/ha, 100=total damage to plant, 0=no damage to plant, read-out: plant damage rating, Barnyardgrass; for pest or weed control at 250 g/ha: 250 g ai/ha, read-out: Barnyardgrass damage rating (100=total damage to plant; 0=no damage to plant)
How it was run: as §1

corn (Zea mays) [7] = assay: Test G Post-Emergence Protocol; details: Zea mays, post-emergence, 312 h; for plant injury at 15.625 g/ha: 15.625 g ai/ha, evaluated after 13 days (100=total damage to plant; 0=no damage to plant), read-out: Corn damage rating; for plant injury at 62.5 g/ha: 62.5 g ai/ha, read-out: Corn damage rating (100=total damage to plant; 0=no damage to plant); for plant injury at 62.5 g/ha / plant injury at 250 g/ha: evaluated after 13 days; for plant injury at 250 g/ha: 250 g ai/ha, read-out: damage to plant, Corn (100=total damage to plant; 0=no damage to plant)
How it was run: (§2)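 Eight days post-sowing, plants received a spray of test compound (acetone/water 50:50, 0.5% Tween 20) at 15.625, 62.5 or 250 g/ha. Glasshouse regime thereafter: 24/16 °C, 14 h light, 65% humidity. Assessment after 13 days on a 0–100 damage scale.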

[8] = test system: velvetleaf (Abutilon theophrasti); assay: Test G Post-Emergence Protocol; details: Abutilon theophrasti, post-emergence, 312 h; for pest or weed control at 15.625 g/ha: 15.625 g ai/ha, evaluated after 13 days (100=total damage to plant; 0=no damage to plant), read-out: Velvetleaf damage rating; for pest or weed control at 62.5 g/ha: 62.5 g ai/ha, read-out: Velvetleaf damage rating (100=total damage to plant; 0=no damage to plant); for pest or weed control at 62.5 g/ha / pest or weed control at 250 g/ha: evaluated after 13 days; for pest or weed control at 250 g/ha: 250 g ai/ha, read-out: damage to plant, Velvetleaf (100=total damage to plant; 0=no damage to plant)
How it was run: as §2

[9] = test system: redroot pigweed (Amaranthus retroflexus); assay: Test G Post-Emergence Protocol; details: Amaranthus retroflexus, post-emergence, 312 h; for pest or weed control at 15.625 g/ha: 15.625 g ai/ha, evaluated after 13 days (100=total damage to plant; 0=no damage to plant), read-out: Pigweed, Redroot damage rating; for pest or weed control at 62.5 g/ha: 62.5 g ai/ha, read-out: Pigweed, Redroot damage rating (100=total damage to plant; 0=no damage to plant); for pest or weed control at 62.5 g/ha / pest or weed control at 250 g/ha: evaluated after 13 days; for pest or weed control at 250 g/ha: 250 g ai/ha, read-out: damage to plant, Pigweed, Redroot (100=total damage to plant; 0=no damage to plant)
How it was run: as §2

[10] = test system: ivy-leaved morning glory (Ipomoea hederacea); assay: Test G Post-Emergence Protocol; details: Ipomoea, post-emergence, 312 h; for pest or weed control at 15.625 g/ha: 15.625 g ai/ha, evaluated after 13 days (100=total damage to plant; 0=no damage to plant), read-out: Morningglory, Ivy-leaved damage rating; for pest or weed control at 62.5 g/ha: 62.5 g ai/ha, read-out: Morningglory, Ivy-leaved damage rating (100=total damage to plant; 0=no damage to plant); for pest or weed control at 62.5 g/ha / pest or weed control at 250 g/ha: evaluated after 13 days; for pest or weed control at 250 g/ha: 250 g ai/ha, read-out: damage to plant, Morningglory, Ivy-leaved (100=total damage to plant; 0=no damage to plant)
How it was run: as §2

[11] = test system: giant foxtail (Setaria faberi); assay: Test G Post-Emergence Protocol; details: Setaria faberi, post-emergence, 312 h; for pest or weed control at 15.625 g/ha: 15.625 g ai/ha, evaluated after 13 days (100=total damage to plant; 0=no damage to plant), read-out: Foxtail, Giant damage rating; for pest or weed control at 62.5 g/ha: 62.5 g ai/ha, read-out: Foxtail, Giant damage rating (100=total damage to plant; 0=no damage to plant); for pest or weed control at 62.5 g/ha / pest or weed control at 250 g/ha: evaluated after 13 days; for pest or weed control at 250 g/ha: 250 g ai/ha, read-out: damage to plant, Foxtail, Giant (100=total damage to plant; 0=no damage to plant)
How it was run: as §2

[12] = test system: barnyardgrass (Echinochloa crus-galli); assay: Test G Post-Emergence Protocol; details: Echinochloa crus-galli, post-emergence, 312 h; for pest or weed control at 15.625 g/ha: 15.625 g ai/ha, evaluated after 13 days (100=total damage to plant; 0=no damage to plant), read-out: Barnyardgrass damage rating; for pest or weed control at 62.5 g/ha: 62.5 g ai/ha, read-out: Barnyardgrass damage rating (100=total damage to plant; 0=no damage to plant); for pest or weed control at 62.5 g/ha / pest or weed control at 250 g/ha: evaluated after 13 days; for pest or weed control at 250 g/ha: 250 g ai/ha, read-out: damage to plant, Barnyardgrass (100=total damage to plant; 0=no damage to plant)
How it was run: as §2

Row | SMILES | plant injury at 15.625 g/ha (corn (Zea mays) [1]) | plant injury at 62.5 g/ha (corn (Zea mays) [1]) | plant injury at 250 g/ha (corn (Zea mays) [1]) | pest or weed control at 15.625 g/ha [2] | pest or weed control at 62.5 g/ha [2] | pest or weed control at 250 g/ha [2] | pest or weed control at 15.625 g/ha [3] | pest or weed control at 62.5 g/ha [3] | pest or weed control at 250 g/ha [3] | pest or weed control at 62.5 g/ha [4] | pest or weed control at 15.625 g/ha [5] | pest or weed control at 62.5 g/ha [5] | pest or weed control at 250 g/ha [5] | pest or weed control at 15.625 g/ha [6] | pest or weed control at 62.5 g/ha [6] | pest or weed control at 250 g/ha [6] | plant injury at 15.625 g/ha (corn (Zea mays) [7]) | plant injury at 62.5 g/ha (corn (Zea mays) [7]) | plant injury at 250 g/ha (corn (Zea mays) [7]) | pest or weed control at 15.625 g/ha [8] | also measured
1 | CN1C[C@H](c2ccc(C(F)(F)F)cc2)[C@@H](C(=O)Nc2cccc(C(F)F)c2)C1=O (racemic) [Compound 1498] | 0% | 0% | 0% | 0% | 0% | 0% | 0% | 0% | 0% | 0% | 0% | 0% | 10% | 0% | 0% | 20% | 0% | 0% | 0% | 0% | pest or weed control at 15.625 g/ha [4]: 0%; pest or weed control at 250 g/ha [4]: 0%; pest or weed control at 62.5 g/ha [8]: 0%; pest or weed control at 250 g/ha [8]: 0%; pest or weed control at 15.625 g/ha [9]: 0%; pest or weed control at 62.5 g/ha [9]: 0%; pest or weed control at 250 g/ha [9]: 0%; pest or weed control at 15.625 g/ha [10]: 0%; pest or weed control at 62.5 g/ha [10]: 0%; pest or weed control at 250 g/ha [10]: 0%; pest or weed control at 15.625 g/ha [11]: 0%; pest or weed control at 62.5 g/ha [11]: 0%; pest or weed control at 250 g/ha [11]: 30%; pest or weed control at 15.625 g/ha [12]: 0%; pest or weed control at 62.5 g/ha [12]: 0%; pest or weed control at 250 g/ha [12]: 30%
2 | CN1C[C@H](c2ccc3ccccc3c2)[C@@H](C(=O)Nc2cccc(F)c2F)C1=O (racemic) [Compound 1501] | 0% | 0% | 0% | 0% | 0% | 0% | 0% | 0% | 0% | 0% | 0% | 70% | 80% | 0% | 50% | 60% | 10% | 20% | 30% | 0% | pest or weed control at 62.5 g/ha [8]: 0%; pest or weed control at 250 g/ha [8]: 0%; pest or weed control at 15.625 g/ha [9]: 0%; pest or weed control at 62.5 g/ha [9]: 0%; pest or weed control at 250 g/ha [9]: 0%; pest or weed control at 15.625 g/ha [10]: 0%; pest or weed control at 62.5 g/ha [10]: 0%; pest or weed control at 250 g/ha [10]: 0%; pest or weed control at 15.625 g/ha [11]: 40%; pest or weed control at 62.5 g/ha [11]: 60%; pest or weed control at 250 g/ha [11]: 60%; pest or weed control at 15.625 g/ha [12]: 10%; pest or weed control at 62.5 g/ha [12]: 50%; pest or weed control at 250 g/ha [12]: 60%
3 | Cc1cnc(NC(=O)[C@@H]2C(=O)N(C)C[C@H]2c2ccc(C(F)(F)F)cc2)nn1 (racemic) [Compound 1508] | 0% | 0% | 0% | 0% | 0% | 0% | 0% | 0% | 0% | 0% | 0% | 0% | 0% | 0% | 0% | 0% | 0% | 0% | 0% | 0% | pest or weed control at 15.625 g/ha [4]: 0%; pest or weed control at 250 g/ha [4]: 0%; pest or weed control at 62.5 g/ha [8]: 0%; pest or weed control at 250 g/ha [8]: 0%; pest or weed control at 15.625 g/ha [9]: 0%; pest or weed control at 62.5 g/ha [9]: 0%; pest or weed control at 250 g/ha [9]: 0%; pest or weed control at 15.625 g/ha [10]: 0%; pest or weed control at 62.5 g/ha [10]: 0%; pest or weed control at 250 g/ha [10]: 0%; pest or weed control at 15.625 g/ha [11]: 0%; pest or weed control at 62.5 g/ha [11]: 0%; pest or weed control at 250 g/ha [11]: 0%; pest or weed control at 15.625 g/ha [12]: 0%; pest or weed control at 62.5 g/ha [12]: 0%; pest or weed control at 250 g/ha [12]: 0%
